# Measured values taken from US6528618B1, “Anti-inflammatory peptides derived from C-reactive protein” (Yeda Research and Development Co. Ltd., priority 1997, dated 2003).
# “Also recorded” adds a separate entry of the source. Where a SMILES comes first, the peptide text is derived from it.
# Key:
# [1] = target: T1, human leukocyte elastase (hLE) (Homo sapiens, UniProt P08246); assay: In vitro inhibition of hLE (cleavage of MeOSuc-AAPV-NA); assay type: biochemical
# T1 construct: Neutrophils (1.4 billion) were isolated from whole blood obtained from a single healthy laboratory donor; from tissue; host or cells: neutrophils from whole blood of a single healthy donor
# T1 sequence (P08246 30-247 limits assumed): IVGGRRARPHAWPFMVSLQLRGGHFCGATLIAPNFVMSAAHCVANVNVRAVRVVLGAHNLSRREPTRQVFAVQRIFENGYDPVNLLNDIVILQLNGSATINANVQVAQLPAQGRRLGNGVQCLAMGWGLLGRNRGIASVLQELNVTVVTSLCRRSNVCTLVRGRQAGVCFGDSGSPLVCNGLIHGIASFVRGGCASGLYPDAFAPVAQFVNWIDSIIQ
# Experimental: (§1) The enzymatic activity was assayed with MeOSuc-AAPV-NA for hLE determination and Suc-AAPF-NA for hCG determination (both in 100 mM Hepes buffer, pH 7.4, containing 0.05% of the […] detergent Brij-35). The activities of the individual enzymatic fractions were 100% free from cross-contamination. […] The fractions containing hLE and hCG were dialyzed each against 0.1% pyridinium acetate, pH 5.3, divided into 20 aliquots, lyophilized, and stored at −20 ° C. until use.
# (v) Inhibition experiments with hLE: Peptides were dissolved in 100 mM Hepes buffer pH 7.4 containing 0.1% Brij-35 with 10%. DMSO to yield 300 μM solutions, which were used to make further dilutions with the same buffer, and 80 μL aliquots were added in duplicates to 96-well plates. The substrate, 600 μM MeOSuc-AAPV-NA in the same buffer with 5% DMSO, was added to each well in addition to the blank wells, and the plate was placed in the plate reader equilibrated to 37 C (Dynateck MR-6000). Lyophilized aliquots of hLE were dissolved in 1600 μL of 100 mM Hepes buffer without DMSO, and 80 μL of the enzyme solution was added to the peptides and substrate to initiate the reaction. […] The final volume was 240 μL containing: 5% DMSO, 1-100 μM of peptide, 200 μM substrate, and 0.75 μg (˜25 picomol) enzyme.
# (viii) Calculations: For hLE, V is determined by fitting a linear equation to the first 6 time-points (10 min) of the kinetics data using the least squares method. […] Several inhibitor concentration in duplicates and two control wells were used to fit a linear equation to graphs of Vo/Vi−1 vs. [I] for each inhibitor using the least squares method (8 data points for each inhibitor). From calculating the error in the slope of the equation, the relative error for Ki was deduced:
# Ki={slope*(1+[S]/Km)}^−1because Ki=[I]*{(1+[S]/Km)*(Vo/Vi−1)}^−1.
# The hLE inhibitory capability of CRP-derived peptides was evaluated by inhibiting the enzymatic cleavage of MeOSuc-AAPV-NA as described in Materials and Methods (section v).
# [2] = target: T2, human leukocyte cathepsin G (hCG) (Homo sapiens, UniProt P08311); assay: In vitro inhibition of hCG (cleavage of Suc-AAPF-NA); assay type: biochemical
# T2 construct: Neutrophils (1.4 billion) were isolated from whole blood obtained from a single healthy laboratory donor; from tissue; host or cells: neutrophils from whole blood of a single healthy donor
# T2 sequence (P08311 21-243 limits assumed): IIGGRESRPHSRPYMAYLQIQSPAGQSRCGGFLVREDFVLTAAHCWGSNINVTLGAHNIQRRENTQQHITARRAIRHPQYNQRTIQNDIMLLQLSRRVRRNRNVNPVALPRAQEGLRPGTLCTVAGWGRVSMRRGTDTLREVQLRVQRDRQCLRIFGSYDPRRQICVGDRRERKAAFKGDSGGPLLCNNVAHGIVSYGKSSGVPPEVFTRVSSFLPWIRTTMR
# Experimental: as §1
# vi) Inhibition experiments with hCG: Similar conditions to hLE inhibition experiments were used except the substrate: 80 μL of 1.80 mM Suc-AAPF-NA. The enzyme was dissolved in 800 μL buffer, and the reaction was monitored every 6 min for 1 hour. The final volume was 240 μL containing: 5% DMSO, 1-100 μM peptide, 600 μM substrate, and 1.2 μg enzyme (about 40 picomol).
# For hCG, V is determined by fitting a quadratic equation to the total kinetic data (60 min), using the least squares method and calculating V at t=0.
# The hCG inhibitory capability of CRP-derived peptides was evaluated by inhibiting the enzymatic cleavage of Suc-AAPF-NA as described in Materials and Methods (section vi).
# [3] = hLE Ki [μM], Table 1, substrate MeOSuc-AAPV-NA 200 μM, pH 7.4, 37 C
# [4] = hCG Ki [μM], Table 1, substrate Suc-AAPF-NA 600 μM, pH 7.4
# [5] = hLE Ki [μM], Table 2, substrate MeOSuc-AAPV-NA 200 μM, pH 7.4, 37 C
# [6] = hCG Ki [μM], Table 2, substrate Suc-AAPF-NA 600 μM, pH 7.4
Structure (SMILES),"Ki [1, 3] [µM]","Ki [2, 4] [µM]",hLE inhibitory activity (in words) [1],hCG inhibitory activity (in words) [2],"Ki [1, 5] [µM]","Ki [2, 6] [µM]",other results
"CC[C@H](C)[C@H](NC(=O)[C@H](CC(=O)O)NC(=O)[C@H](CCCCN)NC(=O)[C@H](CO)NC(=O)[C@@H](N)Cc1c[nH]c2ccccc12)C(=O)NCC(=O)N[C@@H](Cc1ccc(O)cc1)C(=O)N[C@@H](CO)C(=O)N[C@@H](Cc1ccccc1)C(=O)N[C@H](C(=O)N[C@H](C(=O)NCC(=O)NCC(=O)N[C@@H](CO)C(=O)N[C@@H](CCC(=O)O)C(=O)O)C(C)C)[C@@H](C)O [Peptide 7, Trp-Ser-Lys-Asp-Ile-Gly-Tyr-Ser-Phe-Thr-Val-Gly-Gly-Ser-Glu] (H-WSKDIGYSFTVGGSE-OH)",> 200,> 200,,,,,
"CC[C@H](C)[C@H](NC(=O)[C@H](CCC(=O)O)NC(=O)[C@H](CO)NC(=O)CNC(=O)CNC(=O)[C@@H](NC(=O)[C@@H](NC(=O)[C@H](Cc1ccccc1)NC(=O)[C@H](CO)NC(=O)[C@H](Cc1ccc(O)cc1)NC(=O)CN)[C@@H](C)O)C(C)C)C(=O)N[C@@H](CC(C)C)C(=O)N[C@@H](Cc1ccccc1)C(=O)N[C@@H](CCC(=O)O)C(=O)N[C@H](C(=O)O)C(C)C [Peptide 8, Gly-Tyr-Ser-Phe-Thr-Val-Gly-Gly-Ser-Glu-Ile-Leu-Phe-Glu-Val] (H-GYSFTVGGSEILFEV-OH)",> 200,> 200,,,,,
"CC[C@H](C)[C@H](NC(=O)[C@H](CCC(=O)O)NC(=O)[C@H](CO)NC(=O)CNC(=O)CNC(=O)[C@@H](N)C(C)C)C(=O)N[C@@H](CC(C)C)C(=O)N[C@@H](Cc1ccccc1)C(=O)N[C@@H](CCC(=O)O)C(=O)N[C@H](C(=O)N1CCC[C@H]1C(=O)N[C@@H](CCC(=O)O)C(=O)N[C@H](C(=O)N[C@H](C(=O)N[C@H](C(=O)O)C(C)C)[C@@H](C)O)C(C)C)C(C)C [Peptide 9, Val-Gly-Gly-Ser-Glu-Ile-Leu-Phe-Glu-Val-Pro-Glu-Val-Thr-Val] (H-VGGSEILFEVPEVTV-OH)",> 200,> 200,,,,,
"CC[C@H](C)[C@H](N)C(=O)N[C@@H](CC(C)C)C(=O)N[C@@H](Cc1ccccc1)C(=O)N[C@@H](CCC(=O)O)C(=O)N[C@H](C(=O)N1CCC[C@H]1C(=O)N[C@@H](CCC(=O)O)C(=O)N[C@H](C(=O)N[C@H](C(=O)N[C@H](C(=O)N[C@@H](C)C(=O)N1CCC[C@H]1C(=O)N[C@H](C(=O)N[C@@H](Cc1c[nH]cn1)C(=O)N[C@H](C(=O)O)[C@@H](C)CC)C(C)C)C(C)C)[C@@H](C)O)C(C)C)C(C)C [Peptide 10, Ile-Leu-Phe-Glu-Val-Pro-Glu-Val-Thr-Val-Ala-Pro-Val-His-Ile] (H-ILFEVPEVTVAPVHI-OH; N-terminus and C-terminus assumed)",,,two orders of magnitude less potent than peptide 6,,,,Ki ([1]; hLE inhibitory activity range): 50 to 100 µM; Ki ([2]; hCG inhibitory activity range): 150 to 200 µM
"CC[C@H](C)[C@H](N)C(=O)N[C@@H](CC(C)C)C(=O)N[C@H](C(=O)N[C@@H](Cc1ccccc1)C(=O)N[C@@H](Cc1c[nH]c2ccccc12)C(=O)N[C@@H](CO)C(=O)N[C@@H](CCCCN)C(=O)N[C@@H](CC(=O)O)C(=O)N[C@H](C(=O)NCC(=O)N[C@@H](Cc1ccc(O)cc1)C(=O)N[C@@H](CO)C(=O)N[C@@H](Cc1ccccc1)C(=O)N[C@H](C(=O)O)[C@@H](C)O)[C@@H](C)CC)[C@@H](C)CC [Peptide 11, Ile-Leu-Ile-Phe-Trp-Ser-Lys-Asp-Ile-Gly-Tyr-Ser-Phe-Thr] (H-ILIFWSKDIGYSFT-OH; N-terminus and C-terminus assumed)",,,dramatic loss,dramatic loss,,,fold decrease in hLE inhibitory activity compared to peptide 6 ([1]; relative to peptide 6): around 20 fold
"CC[C@H](C)[C@H](N)C(=O)N[C@@H](Cc1ccccc1)C(=O)N[C@@H](Cc1c[nH]c2ccccc12)C(=O)N[C@@H](CO)C(=O)N[C@@H](CCCCN)C(=O)N[C@@H](CC(=O)O)C(=O)N[C@H](C(=O)NCC(=O)N[C@@H](Cc1ccc(O)cc1)C(=O)N[C@@H](CO)C(=O)N[C@@H](Cc1ccccc1)C(=O)N[C@H](C(=O)O)[C@@H](C)O)[C@@H](C)CC [Peptide 12, Ile-Phe-Trp-Ser-Lys-Asp-Ile-Gly-Tyr-Ser-Phe-Thr] (H-IFWSKDIGYSFT-OH)",,,totally abolished the inhibitory activity,,> 200,> 200,
"CC[C@H](C)[C@H](NC(=O)[C@H](CC(=O)O)NC(=O)[C@H](CCCCN)NC(=O)[C@H](CO)NC(=O)[C@H](Cc1c[nH]c2ccccc12)NC(=O)[C@H](Cc1ccccc1)NC(=O)[C@@H](NC(=O)[C@H](CC(C)C)NC(=O)[C@@H](NC(=O)[C@@H](N)CCC(=O)O)[C@@H](C)CC)[C@@H](C)CC)C(=O)NCC(=O)N[C@@H](Cc1ccc(O)cc1)C(=O)O [Peptide 13, Glu-Ile-Leu-Ile-Phe-Trp-Ser-Lys-Asp-Ile-Gly-Tyr] (H-EILIFWSKDIGY-OH; N-terminus and C-terminus assumed)",,,diminished hLE inhibitory activity,diminished inhibitory activity,,,
"CC[C@H](C)[C@H](NC(=O)[C@H](CC(=O)O)NC(=O)[C@H](CCCCN)NC(=O)[C@H](CO)NC(=O)[C@H](Cc1c[nH]c2ccccc12)NC(=O)[C@H](Cc1ccccc1)NC(=O)[C@@H](NC(=O)[C@H](CC(C)C)NC(=O)[C@@H](NC(=O)[C@@H](N)CCC(=O)O)[C@@H](C)CC)[C@@H](C)CC)C(=O)O [Peptide 14, Glu-Ile-Leu-Ile-Phe-Trp-Ser-Lys-Asp-Ile] (H-EILIFWSKDI-OH; N-terminus and C-terminus assumed)",,,still retains significant inhibitory activity; also recorded: retain significant inhibitory activity,retain significant inhibitory activity,,,
"CC[C@H](C)[C@H](NC(=O)[C@H](CC(C)C)NC(=O)[C@@H](NC(=O)[C@@H](N)CCC(=O)O)[C@@H](C)CC)C(=O)N[C@@H](Cc1ccccc1)C(=O)N[C@@H](Cc1c[nH]c2ccccc12)C(=O)N[C@@H](CO)C(=O)N[C@@H](CCCCN)C(=O)O [Peptide 15, Glu-Ile-Leu-Ile-Phe-Trp-Ser-Lys] (H-EILIFWSK-OH)",,,total loss of inhibitory activity,,> 200,> 200,
"CC[C@H](C)[C@H](NC(=O)[C@H](CC(=O)O)NC(=O)[C@H](CCCCN)NC(=O)[C@@H](N)CO)C(=O)NCC(=O)N[C@@H](Cc1ccc(O)cc1)C(=O)N[C@@H](CO)C(=O)O [Peptide 16, Ser-Lys-Asp-Ile-Gly-Tyr-Ser] (H-SKDIGYS-OH)",,,totally inactive,,> 200,> 200,
